Columns and labels:
[1] = test system: popliteal and sciatic lymph nodes; assay: In vivo pharmacokinetics of fluorescence intensity in draining lymph nodes detected through skin; details: subcutaneous, mouse foot, N = 3
Description: (§1) In Vivo NIR Lymphatic Imaging in Mice. Mice were kept under pathogen-free conditions, exposed to a 12 h light-dark cycle, and received food ad libitum prior to imaging. All procedures were approved by the University of Washington Institutional Animal Care and Use Committee. Mice were anesthetized with 1.5% isoflurane, shaved to remove fur, and placed in a supine position on a 37° C. heat pad underneath an IVIS Lumina II NIR CCD camera (Perkin Elmer, Waltham, Mass.). Precontrast images were taken to confirm the absence of autofluorescence. Forty microliters of ICG-LNPs or free ICG was injected subcutaneously into the top of both rear feet. Immediately following injections, both feet were placed under gentle even pressure. Images were acquired for up to 120 min prior to euthanasia by cervical dislocation under anesthesia, upon which the skin was surgically opened to perform lymph node imaging.

[2] = Storage stability of ICG fluorescence in the dark at 4° C.; format: physicochemical; details: for % ICG fluorescence (8 months): stored in the dark at 4° C. for 8 months, % of initial fluorescence intensity, mean ± SD
Description: (§2) Fluorescence. Fluorescence measurements were performed on a Victor3 V 1420-040 Multilabel Plate Reader (Perkin-Elmer, Waltham, Mass.) with a tungsten-halogen continuous wave lamp (75 W, spectral range of 320-800 nm) and excitation (769±41 nm) and emission (832±37 nm) filters (Semrock, Rochester, N.Y.) using 100μL of sample in flat bottom, untreated 96-well plates (Grenier Bio-one, Monroe, N.C.).
(§3) Light Exposure and Storage Stability. […] For storage stability (FIG. 12), samples were placed in the dark at 4° C. for up to 313 days. […] The time-dependent decay of ICG fluorescence was analyzed on the basis of an exponential decay model with GraphPad Prism version 6.0 (GraphPad Software, San Diego, Calif.). The data were expressed as t½ (half-life) and k (rate constant).

[3] = test system: lymph nodes and vessels in mice; assay: In vivo NIR lymphatic imaging in mice after subcutaneous foot injection; set-up: species or system mouse; details: for max NIRF intensity: mean ± SEM (N = 3-4)
Description: as §1

[4] = Light exposure stability of ICG fluorescence; format: physicochemical
Description: as §2, §3

CC1(C)C(/C=C/C=C/C=C/C=C2\N(CCCCS(=O)(=O)O)c3ccc4ccccc4c3C2(C)C)=[N+](CCCCS(=O)(=O)[O-])c2ccc3ccccc3c21 [Free ICG, sodium 2-[7-[3,3-dimethyl-1-(4-sulfonatobutyl)benz[e]indolin-2-ylidene]hepta-1,3,5-trien-1-yl]-3,3-dimethyl-1-(4-sulfonatobutyl)benz]
AUC0-2 hr ([1]; fluorescence intensity in 1st draining lymph node (popliteal LN) through skin): 61.65 ± 34.83 a.u.*min | Intensitymax ([1]; popliteal LN through skin): 0.66 ± 0.42 a.u. | k ([1]; popliteal LN through skin): 0.19 ± 0.17 h⁻¹ | half-life ([2]; buffer, stored in the dark at 4° C., exponential decay model, (95% CI)): 28.6 h | % ICG fluorescence (8 months) [2]: 0.3 +/− 0.2% | % ICG fluorescence (8 months) ([2]; listed as free ICG): 0.3±0.2% | k (rate constant) ([2]; stored in the dark at 4° C., exponential decay model): 0.582 day⁻¹ | No. of nodes detected ([3]; Axillary): 2 | max NIRF intensity ([3]; Axillary LN): 0.8 ± 0.1 10^−5 a.u. | No. of nodes detected ([3]; Gastric): 1-2 | max NIRF intensity ([3]; Gastric LN): 2.5 ± 1.3 10^−5 a.u. | No. of nodes detected ([3]; Medial iliac): 1-2 | max NIRF intensity ([3]; Medial iliac LN): 4.1 ± 1.6 10^−5 a.u. | max NIRF intensity ([3]; Pop afferent vessel): 0.6 ± 0.2 10^−5 a.u. | max NIRF intensity ([3]; Pop efferent vessel): 0.6 ± 0.1 10^−5 a.u. | No. of nodes detected ([3]; Popliteal (Pop)): 1 | max NIRF intensity ([3]; Popliteal (Pop) LN): 4.7 ± 2.2 10^−5 a.u. | No. of nodes detected ([3]; Sciatic): 0 | max NIRF intensity ([3]; Sciatic LN): 0.6 ± 0.1 10^−5 a.u. | ICG intensity mean of the popliteal lymph node ([3]; image collected below the skin, six minutes, 0.5 nmol of ICG subcutaneously in foot): 37.0 | fluorescence intensity, % of the initial value ([4]; after 6 hours of light exposure, 2.0 μM ICG, overhead fluorescent light): 2.5±0.5% | half-life at 2 μM ([4]; aqueous solution (free ICG in solution), light exposure, exponential decay model): 2.16 ± 0.3 min | k ([4]; light exposure, exponential decay model): 19.2 ± 2.7 h⁻¹
